Data: paper PMC7332481, “Ecotoxicity screening evaluation of selected pharmaceuticals and their transformation products towards various organisms” (Environmental Science and Pollution Research International, 2020)
Converted amounts (≈) assume the structure as drawn. Where two headings read alike, the source gives them in different places.

Columns and labels:
Vibrio fischeri = test: microbe, parasite or virus in culture; format: cell-based; conditions: Aliivibrio fischeri; for EC50: 0.5 h, read-out: EC50 V. fischeri (with confidence interval 2.5–97.5%)
Procedure: (§1) Stock solutions and dilutions were prepared in 2% NaCl in 0.02 M phosphate buffer, pH 7. The freeze-dried bacteria were rehydrated prior to testing in a reactivation solution. Culture suspensions and diluted samples were pre-incubated at 15 °C for 15 min. After the initial luminescence was measured, 0.5 mL of the culture suspension was mixed with the same volume of a diluted sample. The final bioluminescence was measured after 30 min. Incubation was kept at 15 °C (LUMIStox 300 meter, Dr. Lange GmbH, Berlin, Germany). The relative toxicity of the samples was expressed as a percentage of luminescence inhibition compared to the controls.
as §1, with “m,” for “meter,”

L. minor = conditions: cited from earlier work
Lemna minor = test: L. minor growth inhibition test; conditions: Lemna minor; for EC50: 168 h, read-out: EC50 L. minor (with confidence interval 2.5–97.5%), growth rate inhibition by frond area, 7 days
Procedure: (§2) All tests were carried out in accordance with the OECD or ISO guidelines. In general the experimental part was divided into three main steps: (i) determination of the toxicity of the native forms of pharmaceuticals (their racemic mixtures), (ii) toxicity evaluation of the selected TPs of these pharmaceuticals, and (iii) preliminary toxicity assessment of the enantiomers of selected pharmaceuticals. For each assay, range-finding tests were conducted, in order to determine the range of concentrations for the definitive tests. The main tests were repeated three times in at least two parallel replicates, with a minimum of five concentrations for native forms of the selected pharmaceuticals (including their enantiomers). The exact number of replicates and concentrations tested was included in the description of each test. […] However, TPs were tested in a different manner; first, the tests were carried out at the limit concentration of 100 mg L^−1. […] Such approach was applied in order to observe the relative toxicity of the selected TP and its native form.
(§3) Dose-response curves were fitted using a linear logistic or logistic model (the model giving the best fit was chosen) (https://cran.r-project.org/web/packages/drfit/drfit.pdf). The mathematic formulas applied for this purpose are presented and described in the Supplementary Material. The EC50 values were given since log EC50 is a model parameter in the logistic as well as in linear logistic model.
One week before the assay, the inoculum cultures were prepared; eight healthy plants were placed into a new portion of the medium. Two days before the test, the plants were transferred to a fresh medium, in order to supplement nutrients and to eliminate plant metabolites. The experiments were performed in six-well plates under the conditions described above. The pH value of the Steinberg medium and all solutions was 5.5 (± 0.5). Every test included six different concentrations of compound and six controls in three replicates. The test started with one plant consisting of three fronds and the measured endpoint was the inhibition of growth rate determined by comparing the frond area (mm^2) for the treated plants and untreated controls.

Arthrobacter globiformis = test: A. globiformis dehydrogenase inhibition test (version without soil); conditions: for EC50: read-out: EC50 A. globiformis
Procedure: as §2
The test strain was obtained from the German Collection of Microorganisms (DSMZ). A version of the test without soil was performed. Bacteria was grown in a sterile medium containing 10 g L^−1 peptone from casein, 5 g L^−1 yeast extract, 5 g L^−1 glucose, and 5 g L^−1 NaCl. For the test, the medium was diluted in a ratio of 1:3 in water. The inoculum was the bacteria in a log-growth phase. Cell density was adjusted to 1 × 10^8 cells mL^−1, which corresponds to an optical density (OD600nm) of 0.4. The test was performed in 24-well microplates. Each well contained 1 mL of solution of the tested compound in water and 1 mL of bacterial inoculum. Next, the plates were incubated for 2 h at 30 °C on a horizontal shaker with a speed of 100 rpm. To each well, a portion of 0.6 mL of the redox active dye resazurine (45 mg L^−1) dissolved in buffer was added. The microplates were further incubated for 1 h (30 °C, 100 rpm). To stop the reduction process, the plates were centrifuged at 3600g for 10 min. Aliquots (300 μl) of supernatant from each well were immediately transferred to the wells of a 96-well microplate in triplicates. Finally, the dehydrogenase activity was determined by measuring the formation of resorufin from resazurine using a fluorimeter ([…]). Dehydrogenase inhibition was calculated using Eq. 1.
where FBTS is the measured fluorescence of the blank (medium) with the tested substance, FTS is the measured fluorescence of the sample, FBNC is the measured fluorescence of the blank, and FNC is the measured fluorescence of the negative control (with bacteria).

Daphnia magna = test: D. magna acute immobilization test; format: in vivo; conditions: Daphnia magna; for EC50: immobilization, 48 h, read-out: EC50 D. magna (with confidence interval 2.5–97.5%); for mortality at 70 µg/mL: read-out: Immobilization
Procedure: as §2, §3
Five pre-fed test organisms were incubated with the studied compounds diluted in 10 mL of test media in glass test vessels at 20 °C (± 1 °C) in darkness for 48 h. Each test consisted of a control and five different concentrations of the studied compound in four parallel replicates. In order to achieve a full dose-response relationship, the concentration series covered the range of 0–100% immobilization. The number of immobilized or dead organisms was checked after 24 and 48 h. The negative effect of exposure to the tested compounds was expressed by the number of immobilized organisms compared to the controls.

algae = conditions: cited from earlier work
Raphidocelis subcapitata = test: R. subcapitata reproduction (growth) inhibition test; format: cell-based; conditions: Raphidocelis subcapitata, 72 h, growth inhibition by cell counts, 72 h; read-out: EC50 R. subcapitata (with confidence interval 2.5–97.5%)
Procedure: as §2, §3
Test organisms were provided from Algal Culture Collection (Universität Göttingen, Germany). […] The light-dark cycle was different from the OECD guidelines, and it was introduced to imitate natural growth conditions. In order to ensure that the algae are in the exponential growth phase when used to inoculate the test solutions, the stock culture was diluted three times a week. The test was carried out in 25 mL suspension cell culture flasks (Nunc) (working volume 10 mL). All operations were performed under sterile conditions. The initial cell concentration was 5 × 10^4 cells mL^−1. Eight different concentrations of every compound in three replicates and a minimum of six controls were used in each test. […] The test flasks were incubated on a shaker with a speed of approx. 75 rpm at the temperature and light conditions described above. Growth inhibition was calculated using the cell counts of the treated samples in relation to the untreated controls after 72 h of exposure. The cells were counted with the use of CASY TT Cell counter & analyzer.

duckweed = conditions: ref Cleuvers 2003; cited from earlier work
V. fischeri = conditions: cited from earlier work
[1] = ref US Food and Drug Administration 1996

## O=C(O)Cc1ccccc1Nc1c(Cl)cccc1Cl [DIC, Diclofenac]
Vibrio fischeri
  EC50: 11.6 µg/mL (≈ 39.2 µM)
Vibrio fischeri; read-out: Luminescence inhibition
  inhibition at 10 µg/mL: 45%
Aquatic organisms
  classification on the basis of EC50 values (EC 93/67/EEC): harmful
L. minor; ref Quinn et al. (2011)
  EC50 L. minor: 47.6 µg/mL (≈ 161 µM)
Lemna minor
  EC50: 16.5 µg/mL (≈ 55.8 µM)
Lemna minor; read-out: Growth inhibition of L. minor
  inhibition at 15 µg/mL: 33%
Arthrobacter globiformis
  EC50: > 100 µg/mL
Arthrobacter globiformis; read-out: inhibition of bacterial growth (A. globiformis)
  inhibition at 100 µg/mL: 30%
Daphnia magna; concentration 60 mg L^−1
  mortality at 60 µg/mL: 50%
Daphnia magna
  EC50: 59.1 µg/mL (≈ 200 µM)

## COc1ccc2cc([C@H](C)C(=O)O)ccc2c1 [NAP, Naproxen]
algae; 72 h, ref Minguez et al. 2016
  EC50, 72h algae: 44.40 µg/mL (≈ 193 µM)
algae; 96 h, ref Isidori et al. 2005b
  EC50, 96h algae: 31.82 µg/mL (≈ 138 µM)
Vibrio fischeri; luminescence inhibition, 30 min, 15 °C
  EC50: 25.2 µg/mL (≈ 109 µM)
Vibrio fischeri; concentration 25 mg L^−1, read-out: Luminescence inhibition
  inhibition at 25 µg/mL: 51%
Aquatic organisms; for the organisms named in the sentence
  classification on the basis of EC50 values (EC 93/67/EEC): harmful
Lemna minor
  EC50: 20.7 µg/mL (≈ 89.9 µM)
Arthrobacter globiformis
  EC50: > 100 µg/mL
Raphidocelis subcapitata
  EC50: 27.1 µg/mL (≈ 118 µM)
duckweed
  EC50 duckweed: 24 µg/mL (≈ 104 µM)
Daphnia magna; concentration 70 mg L^−1
  mortality at 70 µg/mL: 32%
Daphnia magna
  EC50: 74.4 µg/mL (≈ 323 µM)

## COc1cccc(C2(O)CCCCC2CN(C)C)c1 (stereo not shown) [TRA, Tramadol]
V. fischeri; at the concentration of 100 mg L^−1, ref Romanucci et al. (2019)
  toxic effect towards V. fischeri: did not observed any toxic effect
V. fischeri; [1]
  toxicity to V. fischeri: not toxic
L. minor; [1]
  toxicity to L. minor: not toxic
Daphnia magna
  mortality at 70 µg/mL: 44%
